# Measured values taken from patent publication US12629385B2, “Stable AST-3424 injection preparation and preparation method” (OBI PHARMA, INC., priority 2019, dated 2026).
# Tests used:
# [1] = Study on solution stability of AST-3424 in different solutions (HPLC content, pH); assay type: physicochemical
# Protocol: Approximate 107.32 mg of AST-3424 (50% v/v, ethanol) was measured, and put in 50-ml volumetric flasks, to which solvents (organic solvents, buffer solutions, or purified water) were added to the scale, respectively. At each predetermined time point, 1 ml of the sample was measured for HPLC analysis. If API was stable in different pH solutions, the sampling time would be extended, e.g., 5 days or longer.
# (§1) For samples used for the assay in the solubility study, about 1 ml of the culture medium was measured, then the resultant was centrifuged at 10000 rpm for 10 min, and the clear solution in […] was collected for HPLC analysis. For the study on solution stability, the samples could be directly injected into HPLC for analysis.
# (§2) Content determination by HPLC method: AST-3424 was used as an external standard for quantitation.
# UVDAD detector: wavelength: 230 nm. C18 column, column temperature: 25° C.
# • A: 10 mmol/L ammonium acetate solution obtained by dissolving ammonium acetate in a mixed solvent of 95% water and 5% acetonitrile by volume; • B: 8 mmol/L ammonium acetate solution obtained by dissolving ammonium acetate in a mixed solvent of 95% acetonitrile and 5% water by volume;
# Gradient elution was performed.
# [2] = Solubility test of AST-3424 at 25° C. (shaking incubator, HPLC content, pH); assay type: physicochemical; settings: for Content (solubility study): 25° C.
# Protocol: An appropriate amount of AST-3424 (hereinafter referred to as the active pharmaceutical ingredient or API) was measured, and put in a suitable container containing 40 ml of the above solution (20 ml for an organic solvent) until there were excessive AST-3424 oil droplets in the solution.
# The samples were placed in a constant-temperature shaking incubator, the temperature of which was maintained at 25° C. The samples were shaken at an appropriate speed (100 rpm). Sampling was carried out at each predetermined time point as listed in Table 1, and the pH was examined. Then, the samples were centrifuged (10000 rpm, 10 min), and diluted to a concentration suitable for HPLC analysis (note: accurately recording the dilution ratio after the test) by adding the corresponding solution or organic solvent (dissolving API for solubility study), so as to obtain solubility data.
# as §1, §2
# According to the results of solution stability, AST-3424 was very unstable in the pH4.5 acetate buffer. Therefore, the solubility was tested in the pH6.8 phosphate buffer, the pH7.4 phosphate buffer, the pH10.0 alkaline borate buffer, and the purified water. An appropriate amount of AST-3424 was weighed and put into 40 mL of medium (ethanol/propylene glycol: 8 mL, 50:50V/V) until there were excessive floccules in the solution. If the solubility of API in the aqueous solution was greater than 2% (20 mg/ml), there was no need to add more API.
smiles,measurement,setting,value
"C[C@H](OP(=O)(N1CC1)N1CC1)c1ccc([N+](=O)[O-])c(Oc2cccc(C(=O)N(C)C)c2)c1 [AST-3424, (S)-1-(3-(3-N,N-dimethylaminocarbonyl)phenoxyl-4-nitrophenyl)-1-ethyl-N,N′-bis(ethylene)phosphoramidate]",pH value,"[1]; AST-3424 solution in pH 4.5 acetate buffer, 0 h",4.497
same,pH value,"[1]; AST-3424 solution in pH 4.5 acetate buffer, 72 h",4.477
same,pH value,"[1]; AST-3424 solution in pH 6.8 phosphate buffer, 0 h",6.815
same,pH value,"[1]; AST-3424 solution in pH 6.8 phosphate buffer, 72 h",6.855
same,pH value,"[1]; AST-3424 solution in pH 7.4 phosphate buffer, 0 h",7.481
same,pH value,"[1]; AST-3424 solution in pH 7.4 phosphate buffer, 72 h",7.534
same,pH value,"[1]; AST-3424 solution in pH 10.0 alkaline borate buffer, 0 h",9.984
same,pH value,"[1]; AST-3424 solution in pH 10.0 alkaline borate buffer, 72 h",10.023
same,pH value,"[1]; AST-3424 solution in purified water, 0 h",5.152
same,pH value,"[1]; AST-3424 solution in purified water, 72 h",6.435
same,Content,"[1]; Ethanol/propylene glycol (50:50, v/v), 0 h, room temperature",1.295 mg/mL
same,Content,"[1]; Ethanol/propylene glycol (50:50, v/v), 1 h, room temperature",1.287 mg/mL
same,Content,"[1]; Ethanol/propylene glycol (50:50, v/v), 4 h, room temperature",1.287 mg/mL
same,Content,"[1]; Ethanol/propylene glycol (50:50, v/v), 8 h, room temperature",1.287 mg/mL
same,Content,"[1]; Ethanol/propylene glycol (50:50, v/v), 24 h, room temperature",1.302 mg/mL
same,Content,"[1]; Ethanol/propylene glycol (50:50, v/v), 48 h, room temperature",1.284 mg/mL
same,Content,"[1]; Ethanol/propylene glycol (50:50, v/v), 72 h, room temperature",1.275 mg/mL
same,Content,"[1]; Ethanol, 0 h, room temperature",1.238 mg/mL
same,Content,"[1]; Ethanol, 1 h, room temperature",1.280 mg/mL
same,Content,"[1]; Ethanol, 4 h, room temperature",1.246 mg/mL
same,Content,"[1]; Ethanol, 8 h, room temperature",1.240 mg/mL
same,Content,"[1]; Ethanol, 24 h, room temperature",1.240 mg/mL
same,Content,"[1]; Ethanol, 48 h, room temperature",1.278 mg/mL
same,Content,"[1]; Ethanol, 72 h, room temperature",1.236 mg/mL
same,Content,"[1]; Purified water, 0 h, room temperature",1.186 mg/mL
same,Content,"[1]; Purified water, 1 h, room temperature",1.126 mg/mL
same,Content,"[1]; Purified water, 4 h, room temperature",1.056 mg/mL
same,Content,"[1]; Purified water, 8 h, room temperature",1.005 mg/mL
same,Content,"[1]; Purified water, 24 h, room temperature",0.918 mg/mL
same,Content,"[1]; Purified water, 48 h, room temperature",0.860 mg/mL
same,Content,"[1]; Purified water, 72 h, room temperature",0.810 mg/mL
same,Solution stability,[1]; pH4.5 acetate buffer,very unstable
same,Content,"[1]; pH 4.5 acetate buffer, 0 h, room temperature",0.673 mg/mL
same,Content,"[1]; pH 4.5 acetate buffer, 1 h, room temperature",0.413 mg/mL
same,Content,"[1]; pH 4.5 acetate buffer, 4 h, room temperature",0.218 mg/mL
same,Content,"[1]; pH 4.5 acetate buffer, 8 h, room temperature",0.093 mg/mL
same,Content,"[1]; pH 4.5 acetate buffer, 24 h, room temperature",0.013 mg/mL
same,Content,"[1]; pH 6.8 phosphate buffer, 0 h, room temperature",1.202 mg/mL
same,Content,"[1]; pH 6.8 phosphate buffer, 1 h, room temperature",1.200 mg/mL
same,Content,"[1]; pH 6.8 phosphate buffer, 4 h, room temperature",1.193 mg/mL
same,Content,"[1]; pH 6.8 phosphate buffer, 8 h, room temperature",1.185 mg/mL
same,Content,"[1]; pH 6.8 phosphate buffer, 24 h, room temperature",1.168 mg/mL
same,Content,"[1]; pH 6.8 phosphate buffer, 48 h, room temperature",1.145 mg/mL
same,Content,"[1]; pH 6.8 phosphate buffer, 72 h, room temperature",1.102 mg/mL
same,Solution stability,[1]; pH7.4 phosphate buffer,stable
same,Content,"[1]; pH 7.4 phosphate buffer, 0 h, room temperature",1.267 mg/mL
same,Content,"[1]; pH 7.4 phosphate buffer, 1 h, room temperature",1.266 mg/mL
same,Content,"[1]; pH 7.4 phosphate buffer, 4 h, room temperature",1.266 mg/mL
same,Content,"[1]; pH 7.4 phosphate buffer, 8 h, room temperature",1.262 mg/mL
same,Content,"[1]; pH 7.4 phosphate buffer, 24 h, room temperature",1.262 mg/mL
same,Content,"[1]; pH 7.4 phosphate buffer, 48 h, room temperature",1.249 mg/mL
same,Content,"[1]; pH 7.4 phosphate buffer, 72 h, room temperature",1.228 mg/mL
same,Content,"[1]; pH 10.0 (alkaline borate buffer), 0 h, room temperature",1.265 mg/mL
same,Content,"[1]; pH 10.0 (alkaline borate buffer), 1 h, room temperature",1.265 mg/mL
same,Content,"[1]; pH 10.0 (alkaline borate buffer), 4 h, room temperature",1.261 mg/mL
same,Content,"[1]; pH 10.0 (alkaline borate buffer), 8 h, room temperature",1.258 mg/mL
same,Content,"[1]; pH 10.0 (alkaline borate buffer), 24 h, room temperature",1.261 mg/mL
same,Content,"[1]; pH 10.0 (alkaline borate buffer), 48 h, room temperature",1.257 mg/mL
same,Content,"[1]; pH 10.0 (alkaline borate buffer), 72 h, room temperature",1.242 mg/mL
same,Time for which API was stable in solution,"[1]; room temperature, ethanol, ethanol/propylene glycol=1/1, pH7.4 and pH10.0 buffer solutions",at least 72 h
same,Solution stability,"[1]; room temperature, pH4.5 solution and water",unstable
same,Time for which API was stable in solution,"[1]; room temperature, pH6.8 solution",at least 24 h
same,Solution stability,[1]; water and pH6.8 phosphate buffer,relatively poor stability
same,Content (solubility study),"[2]; Ethanol/propylene glycol (50:50, v/v), 1 h",271.28 mg/mL
same,Content (solubility study),"[2]; Ethanol/propylene glycol (50:50, v/v), 8 h",301.33 mg/mL
same,Content (solubility study),"[2]; Ethanol/propylene glycol (50:50, v/v), 24 h",298.85 mg/mL
same,"Solubility, description of terms","[2]; alcohol solvents such as ethanol/propylene glycol (50:50, v/v)",Freely soluble
same,pH value (solubility study),"[2]; excess AST-3424 in pH 6.8 phosphate buffer, 1 h",6.856
same,pH value (solubility study),"[2]; excess AST-3424 in pH 6.8 phosphate buffer, 4 h",6.837
same,pH value (solubility study),"[2]; excess AST-3424 in pH 6.8 phosphate buffer, 8 h",6.855
same,pH value (solubility study),"[2]; excess AST-3424 in pH 6.8 phosphate buffer, 24 h",6.841
same,pH value (solubility study),"[2]; excess AST-3424 in pH 6.8 phosphate buffer, 48 h",6.860
same,pH value (solubility study),"[2]; excess AST-3424 in pH 7.4 phosphate buffer, 1 h",7.477
same,pH value (solubility study),"[2]; excess AST-3424 in pH 7.4 phosphate buffer, 4 h",7.462
same,pH value (solubility study),"[2]; excess AST-3424 in pH 7.4 phosphate buffer, 8 h",7.475
same,pH value (solubility study),"[2]; excess AST-3424 in pH 7.4 phosphate buffer, 24 h",7.455
same,pH value (solubility study),"[2]; excess AST-3424 in pH 7.4 phosphate buffer, 48 h",7.482
same,pH value (solubility study),"[2]; excess AST-3424 in pH 10.0 alkaline borate buffer, 1 h",9.998
same,pH value (solubility study),"[2]; excess AST-3424 in pH 10.0 alkaline borate buffer, 4 h",9.980
same,pH value (solubility study),"[2]; excess AST-3424 in pH 10.0 alkaline borate buffer, 8 h",9.971
same,pH value (solubility study),"[2]; excess AST-3424 in pH 10.0 alkaline borate buffer, 24 h",9.932
same,pH value (solubility study),"[2]; excess AST-3424 in pH 10.0 alkaline borate buffer, 48 h",9.952
same,pH value (solubility study),"[2]; excess AST-3424 in purified water, 1 h",5.004
same,pH value (solubility study),"[2]; excess AST-3424 in purified water, 4 h",5.651
same,pH value (solubility study),"[2]; excess AST-3424 in purified water, 8 h",5.971
same,pH value (solubility study),"[2]; excess AST-3424 in purified water, 24 h",6.378
same,pH value (solubility study),"[2]; excess AST-3424 in purified water, 48 h",6.512
same,"Solubility (initial investigation, words)","[2]; methanol, propanol, butanol, ethylene glycol, propylene glycol, glycerol, 1,3-butanediol, 1,2-butanediol",good solubility
same,Content (solubility study),"[2]; pH 6.8 (phosphate buffer), 4 h",22.92 mg/mL
same,Content (solubility study),"[2]; pH 6.8 (phosphate buffer), 8 h",23.03 mg/mL
same,pH of the solutions of API at different time points,"[2]; pH6.8, pH7.4 and pH10.0 media",remained unchanged
same,Content (solubility study),"[2]; pH 7.4 (phosphate buffer), 1 h",23.65 mg/mL
same,Content (solubility study),"[2]; pH 7.4 (phosphate buffer), 4 h",23.47 mg/mL
same,Content (solubility study),"[2]; pH 7.4 (phosphate buffer), 8 h",23.56 mg/mL
same,Content (solubility study),"[2]; pH 7.4 (phosphate buffer), 24 h",23.65 mg/mL
same,Content (solubility study),"[2]; pH 10.0 (alkaline borate buffer), 1 h",23.50 mg/mL
same,Content (solubility study),"[2]; pH 10.0 (alkaline borate buffer), 4 h",23.56 mg/mL
same,Content (solubility study),"[2]; pH 10.0 (alkaline borate buffer), 8 h",23.48 mg/mL
same,Content (solubility study),"[2]; pH 10.0 (alkaline borate buffer), 24 h",23.49 mg/mL
same,"Solubility, description of terms","[2]; water, pH6.8 phosphate buffer, pH7.4 phosphate buffer, pH10.0 alkaline borate buffer",sparingly soluble
